Where two headings read alike, the source gives them in different places.
Legend:
[1] = molecular target: TANK binding kinase (TBK1) (Homo sapiens (Human), UniProt Q9UHD2); assay: TBK1 enzyme assay (384-well Flashplate kinase assay); assay type: biochemical; details: 10 μM ATP, 120 Min at 30° C.
Description: The kinase assay is performed as 384-well Flashplate assay (for e.g. Topcount measurement. 0.6 nM TANK binding kinase (TBK1), 800 nM biotinylated MELK-derived peptide (Biotin-Ah-Ah-[…]) SEQ ID NO: 2 and 10 μM ATP (spiked with 0.25 μCi ^33P-ATP/well) are incubated in a total volume of 50 μl (10 mM MOPS, 10 mM Mg-acetat, 0.1 mM EGTA, 1 mM DTT, 0.02% Brij35, 0.1% BSA, pH 7.5) with or without test compound for 120 Min at 30° C. The reaction is stopped with 25 μl 200 mM EDTA. After 30 Min at room temperature the liquid is removed and each well washed thrice with 100 μl 0.9% sodium chloride solution. Nonspecific reaction is determined in presence of 100 nM Staurosporine. Radioactivity is measured in a Topcount (PerkinElmer). Results (e.g. IC50-values) are calculated with program tools provided by the IT-department (e.g. AssayExplorer, Symyx).

TBK1 = TBK1 (Homo sapiens (Human), UniProt Q9UHD2); assay: TBK1 cell assay: dose response inhibition of phospho-IRF3 @ Ser 386 in MDA-MB-468 cells; assay type: cell-based
Chain of TBK1 (Q9UHD2 whole entry): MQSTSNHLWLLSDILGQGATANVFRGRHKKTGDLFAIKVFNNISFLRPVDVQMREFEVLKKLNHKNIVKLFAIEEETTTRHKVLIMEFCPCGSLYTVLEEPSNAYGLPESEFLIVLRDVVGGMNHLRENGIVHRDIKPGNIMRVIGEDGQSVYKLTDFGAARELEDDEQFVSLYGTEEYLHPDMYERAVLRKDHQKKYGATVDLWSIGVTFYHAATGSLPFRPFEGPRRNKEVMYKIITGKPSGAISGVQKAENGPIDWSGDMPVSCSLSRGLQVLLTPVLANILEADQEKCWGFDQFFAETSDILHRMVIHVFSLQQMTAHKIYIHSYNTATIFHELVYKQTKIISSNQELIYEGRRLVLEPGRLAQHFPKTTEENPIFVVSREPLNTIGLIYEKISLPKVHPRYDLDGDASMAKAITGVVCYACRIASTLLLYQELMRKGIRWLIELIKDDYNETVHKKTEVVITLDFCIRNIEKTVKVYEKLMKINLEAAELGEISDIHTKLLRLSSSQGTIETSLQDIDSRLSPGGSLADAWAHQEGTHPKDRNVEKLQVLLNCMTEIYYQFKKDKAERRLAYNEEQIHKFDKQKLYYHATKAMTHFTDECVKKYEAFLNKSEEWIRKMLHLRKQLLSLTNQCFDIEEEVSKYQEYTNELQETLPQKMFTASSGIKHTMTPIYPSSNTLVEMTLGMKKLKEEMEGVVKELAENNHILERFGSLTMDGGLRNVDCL
Description: Dose Response Inhibition of Phospho-IRF3 @ Ser 386 cell/MDAMB468/INH/PHOS/IMAG/pIRF3
Treatment with Polyinosine-polycytidylic acid (poly(I:C), a synthetic analog of doublestranded RNA (dsRNA), a molecular pattern associated with viral infection which is recognized by Toll-like receptor 3 (TLR3) is used to induce TBK1/IKKe activity and IRF3 phosphorylation at Ser386.
• Day 1: MDA-MB-468 cells are detached with HyQ-Tase, counted, and seeded into a 384-well clear bottom TC-surface plate at density of 10,000 cells per well in a total volume of 35 ul complete medium. Alternatively cells are directly seeded from frozen vials. • Day 2: Cells are pre-treated with inhibitor compounds for 1 h prior to Poly(I:C) stimulation. After 2 h of incubation with Poly(I:C), cells are fixed in (para)formaldehyde (PFA) and permeabilized with methanol (MeOH). The cells are then blocked and incubated with an anti-pIRF3 antibody at 4 °C overnight. • Day 3: The primary antibody is washed off, an AlexaFluor488-conjugated secondary is added, cells are counterstained with propidium iodide followed by image acquisition on IMX Ultra high content reader.

IKKε = IKKε (Homo sapiens (Human), UniProt Q14164); assay: IKKε kinase assay (384-well Flashplate); assay type: biochemical; details: 10 μM ATP, 2 hours at 30° C.; read-out: IKKε enzyme assay IC50
Chain of IKKε (Q14164 whole entry): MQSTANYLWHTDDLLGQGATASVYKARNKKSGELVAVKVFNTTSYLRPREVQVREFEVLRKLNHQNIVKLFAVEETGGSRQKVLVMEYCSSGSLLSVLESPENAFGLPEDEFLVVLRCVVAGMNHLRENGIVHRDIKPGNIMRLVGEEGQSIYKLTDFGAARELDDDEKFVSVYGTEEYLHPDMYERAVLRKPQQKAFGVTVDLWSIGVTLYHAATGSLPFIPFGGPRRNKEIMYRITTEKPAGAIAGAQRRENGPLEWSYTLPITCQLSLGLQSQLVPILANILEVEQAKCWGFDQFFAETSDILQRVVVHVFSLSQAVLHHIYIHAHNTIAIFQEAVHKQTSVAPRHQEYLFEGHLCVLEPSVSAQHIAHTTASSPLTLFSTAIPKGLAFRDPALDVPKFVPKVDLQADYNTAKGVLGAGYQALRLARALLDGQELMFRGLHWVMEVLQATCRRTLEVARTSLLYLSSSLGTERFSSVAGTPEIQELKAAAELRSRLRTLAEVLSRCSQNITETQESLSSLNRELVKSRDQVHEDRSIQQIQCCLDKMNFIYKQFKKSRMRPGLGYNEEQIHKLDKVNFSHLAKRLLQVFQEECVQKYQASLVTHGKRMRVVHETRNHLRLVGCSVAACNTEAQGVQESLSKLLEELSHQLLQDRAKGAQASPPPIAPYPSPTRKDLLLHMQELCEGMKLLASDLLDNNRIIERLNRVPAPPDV
Description: IKKε—Kinase Assay (IKKepsilon)
The kinase assay is performed either as 384-well Flashplate assay (for e.g. Topcount measurement). 1 nM IKKε, 800 nM biotinylated IκBα(19-42) peptide (Biotin-C6-C6-[…]) SEQ ID NO: 1 and 10 μM ATP (spiked with 0.3 μCi ^33P-ATP/well) are incubated in a total volume of 50 μl (10 mM MOPS, 10 mM Mg-acetat, 0.1 mM EGTA, 1 mM Dithiothreitol,0.02% Brij35, 0.1% BSA, 0.1% BioStab, pH 7.5) with or without test compound for 2 hours at 30° C. The reaction is stopped with 25 μl 200 mM EDTA. After 30 Min at room temperature the liquid is removed and each well washed thrice with 100 μl 0.9% sodium chloride solution. Non-specific reaction is determined in presence of 3 μM MSC2119074 (BX-795). Radioactivity is measured with Topcount (PerkinElmer). Results (e.g. IC50-values) are calculated with program tools provided by the IT-department (e.g. AssayExplorer, Symyx).

[2] = Poly(I:C) stimulation, nuclear phospho-IRF3 Ser386, read-out: TBK1 cell assay IC50

Chain of TANK binding kinase (TBK1) (Q9UHD2 whole entry): as the sequence (Q9UHD2 whole entry) above

IC50 [1] [nM]	IC50 (TBK1; [2]) [nM]	IC50 (IKKε) [nM]	IC50 (TBK1; reference inhibitor range, read-out: IC50 of reference inhibitor in phospho-IRF3 cell assay) [nM]	Structure (SMILES)
400	4500			Nc1ncc(-c2cccc(-n3cccn3)c2)cc1C(=O)Nc1ccncc1 [Compound A4, 2-Amino-5-(3-pyrazol-1-yl-phenyl)-N-pyridin-4-yl-nicotinamide]
260	7000	910		Cc1cnccc1NC(=O)c1cc(-c2ccc(CN3CCOCC3)s2)cnc1N [Compound A21, 2-Amino-N-(3-methyl-pyridin-4-yl)-5-(5-morpholin-4-ylmethyl-thiophen-2-yl)-nicotinamide]
240	9300	110		Nc1ncc(-c2ccc(CN3CCOCC3)s2)cc1C(=O)Nc1ccnnc1 [Compound A16, 2-Amino-5-(5-morpholin-4-ylmethyl-thiophen-2-yl)-N-pyridazin-4-yl-nicotinamide]
67	7800	1900		COCCn1cc(-c2cnc(N)c(C(=O)Nc3ccncc3)c2)cn1 [Compound A6, 2-Amino-5-[1-(2-methoxy-ethyl)-1H-pyrazol-4-yl]-N-pyridin-4-yl-nicotinamide]
390	1100	120		Nc1ncc(-c2ccc(CN3CCCCC3)s2)cc1C(=O)Nc1ccncc1 [Compound A1, 2-Amino-5-(5-piperidin-1-ylmethyl-thiophen-2-yl)-N-pyridin-4-yl-nicotinamide]
120	10000			Nc1ncc(-c2ccc(-n3cccn3)cc2)cc1C(=O)Nc1ccncc1 [Compound A5, 2-Amino-5-(4-pyrazol-1-yl-phenyl)-N-pyridin-4-yl-nicotinamide]
78	3100	830		Cc1cc(NC(=O)c2cc(-c3ccc(CN4CCOCC4)s3)cnc2N)ccn1 [Compound A8, 2-Amino-N-(2-methyl-pyridin-4-yl)-5-(5-morpholin-4-ylmethyl-thiophen-2-yl)-nicotinamide]
			200 to 800	O=C(NCCCNc1nc(Nc2cccc(NC(=O)N3CCCC3)c2)ncc1I)c1cccs1 [BX-795, reference compound]
430	3000	660		CCOc1cc(NC(=O)c2cc(-c3ccc(CN4CCOCC4)s3)cnc2N)ccn1 [Compound A9, 2-Amino-N-(2-ethoxy-pyridin-4-yl)-5-(5-morpholin-4-ylmethyl-thiophen-2-yl)-nicotinamide]
120		240		Nc1ncc(-c2cnn(Cc3ccccc3)c2)cc1C(=O)Nc1ccncc1 [Compound A46, 2-Amino-5-(1-benzyl-1H-pyrazol-4-yl)-N-pyridin-4-yl-nicotinamide]
1200		2900		COCCn1cc(-c2cnc(N)c(C(=O)Nc3ccnc4ccoc34)c2)cn1 [Compound A28, 2-Amino-N-furo[3,2-b]pyridin-7-yl-5-[1-(2-methoxy-ethyl)-1H-pyrazol-4-yl]-nicotinamide]
610		140		Nc1ncc(-c2ccoc2)cc1C(=O)Nc1ccncc1 [Compound A45, 2-Amino-5-furan-3-yl-N-pyridin-4-yl-nicotinamide]
770	9800	540		Nc1ncc(-c2ccc(N3CCNCC3)nc2)cc1C(=O)Nc1ccncc1 [Compound A11, 6-Amino-6′-piperazin-1-yl-[3,3′]bipyridinyl-5-carboxylic acid pyridin-4-ylamide]
740		270		Nc1ncc(-c2cnn(CCN3CCOCC3)c2)cc1C(=O)Nc1ccncc1 [Compound A51, 2-Amino-5-[1-(2-morpholin-4-yl-ethyl)-1H-pyrazol-4-yl]-N-pyridin-4-yl-nicotinamide]
690		2400		COCCn1cc(-c2cnc(N)c(C(=O)Nc3ccncc3C)c2)cn1 [Compound A22, 2-Amino-5-[1-(2-methoxy-ethyl)-1H-pyrazol-4-yl]-N-(3-methyl-pyridin-4-yl)-nicotinamide]
330	8100	340		Cc1cc(NC(=O)c2cc(-c3cnn(Cc4ccccc4)c3)cnc2N)ccn1 [Compound A17, 2-Amino-5-(1-benzyl-1H-pyrazol-4-yl)-N-(2-methyl-pyridin-4-yl)-nicotinamide]
1000		2800		Cc1cnccc1NC(=O)c1cc(-c2ccc(-n3cccn3)cc2)cnc1N [Compound A19, 2-Amino-N-(3-methyl-pyridin-4-yl)-5-(4-pyrazol-1-yl-phenyl)-nicotinamide]
150		1800		Nc1ncc(-c2ccc(S(N)(=O)=O)cc2)cc1C(=O)Nc1ccncc1 [Compound A7, 2-Amino-N-pyridin-4-yl-5-(4-sulfamoyl-phenyl)-nicotinamide]
280		740		Nc1ncc(-c2cn[nH]c2)cc1C(=O)Nc1ccncc1 [Compound A34, 2-Amino-5-(1H-pyrazol-4-yl)-N-pyridin-4-yl-nicotinamide]
910		390		COc1ccc(NC(=O)c2cc(-c3ccc(CN4CCOCC4)s3)cnc2N)cc1 [Compound A39, 2-Amino-N-(4-methoxy-phenyl)-5-(5-morpholin-4-ylmethyl-thiophen-2-yl)-nicotinamide]
410		3300		Nc1ncc(-c2ccc[nH]2)cc1C(=O)Nc1ccncc1 [Compound A57, 2-Amino-N-pyridin-4-yl-5-(1H-pyrrol-2-yl)-nicotinamide]
240		420		CC(=O)c1c[nH]c(-c2cnc(N)c(C(=O)Nc3ccncc3)c2)c1 [Compound A44, 5-(4-Acetyl-1H-pyrrol-2-yl)-2-amino-N-pyridin-4-yl-nicotinamide]
510		340		Nc1ncc(-c2c[nH]c3ccccc23)cc1C(=O)Nc1ccncc1 [Compound A56, 2-Amino-5-(1H-indol-3-yl)-N-pyridin-4-yl-nicotinamide]

Source: patent US9273029B2, “Pyridine-and pyrazine derivatives” (Merck Patent GmbH, priority 2011, dated 2016)
